Where two headings read alike, the source gives them in different places.

One data set has as its target CYP2E1 (Homo sapiens (Human), UniProt P05181). As to the kind of experiment: Fluorescent High Throughput P450 assay, CYP2E1. It counts as biochemical. As to conditions: substrate MFC; read-out: CYP2E1 IC50 (Mean ± S.D.).
The subject of data set [1] is Raw264.7 mouse macrophage cell line. As to the kind of experiment: IL-6 and TNF-alpha secretion in Raw264.7 cells (ELISA). Type of data set: cell-based. As to conditions: Mus musculus, RAW264.7, 24 hours treatment, 7 doses. On the procedure: EC50 values were determined for control and each drug candidate for IL-6 and TNF-alpha secretion. […] The cells were plated in 96 well plates and treated with TLR7 agonists for 24 hours in 7 doses. The conditioned media was removed after 24 hours for ELISA analyses. The cells were subsequently assayed for viability using the XTT assay according to the guidelines from the supplier. […] The experiment was performed in quadruplicate wells for each testing series, and the supernatant pooled and measured by ELISA in triplicates. Concentrations of IL-6 and TNF-alpha were determined by ELISA from R&D Systems using the Microsoft Excel Software. The results were analyzed in Graph Pad Prism in order to prepare dose-response curves, and for determination of EC50 values.
Background: In an ELISA, binding on a coated surface is turned into a signal by an enzyme label.

A further data set relates to PBMCs. The data set can be described thus: IL-6 and TNF-alpha secretion in PBMCs from three donors (ELISA). The conditions noted are these: Homo sapiens, PBMC. Type of data set: cell-based, human. The method, then:
EC50 values were determined for control and each drug candidate for IL-6 and TNF-alpha secretion. […] The cells were treated with TLR7 agonists for 24 hours in 7 doses. The conditioned media was removed for ELISA analyses for IL-6 and TNF-alpha, and cell survival determined by the XTT method according to the protocol from the supplier. […] Concentrations of IL-6 and TNF-alpha were determined by ELISA from R&D Systems using the Microsoft Excel Software. The results were analyzed in Graph Pad Prism in order to prepare dose-response curves, and for determination of EC50 values.

For a further data set, the system named is human PBMCs. The data set can be described thus: IL-6 secretion in human PBMCs, two batches of Compound A and SC12. Type of data set: cell-based. As to conditions: Homo sapiens, PBMC, 24 h. The method, then: PBMCs were purified from two donors and plated into 96 well plates at 2×10^5 cells/well in RPMI media including human 2% heat inactivated AB serum, glutamine, Pen-strep and R-mercapto-ethanol. The cells were treated with TLR7 agonists for 24 h in 4 doses. The conditioned media was removed for ELISA analyses for IL-6, and the EC50 value determined for each compound and each batch.
All compounds were tested in four concentrations (10-1-0.1-0.01 micromolar).
Concentrations of IL-6 were determined by ELISA from R&D Systems using the Microsoft Excel software. The results were analyzed in Graph Pad Prism in order to prepare dose-response curves, and for determination of EC50 values.

The test system of the next data set is whole blood. The data set can be described thus: Cytokine secretion in human whole blood assay (ELISA). It counts as cell-based. The method, then: A volume of approximately 55 mL fresh whole blood was drawn in heparinized Vacutainers from three healthy adult anonymous volunteers as described (J. A. Ida, Journal of Immunol Methods, 310, 2006, 86-99). […] Before drawing the blood, the compounds were added to 96 well round bottom plates in a 10× diluted sample at 20 ul. The compounds were diluted in RPMI media without serum but with antibiotics. Antibiotics were added at a 10× concentration. After drawing the blood, the whole blood sample was gently mixed to obtain a homogeneous sample, and 180 ul was added to each well.
After 6 hours and 24 hours incubation, plasma was removed for ELISA (IL-6, IL-10, IL-12p40 and IFN-alpha). ELISA was made at the 6 and 24 hours time point for all concentrations. After 24 hours incubation with selected compound concentrations, cells were analyzed for activation markers by FACS.
All compounds were setup in concentrations at 0-0.01-0.03-0.1-0.5-2.0-10.0 micromolar as the final concentration. Vehicle control was DMSO control, where we used the highest concentration used for the compounds. After addition of blood, all plates were gently agitated at 37° C. and 5% CO2 until harvest. The samples were removed after 6 or 24 hours incubation, and pooled into appropriate tubes (2 ml).
Concentrations of cytokines were determined by ELISA from R&D Systems. The results were analyzed in Graph Pad Prism in order to prepare dose-response
curves, and for determination of EC50 values. FACS analysis was made by using Becton-Dickinson FACSDiva software and subsequently illustrated in Graph Pad Prism.

A further data set deals with HLA-DR+/CD20+ B cells. The data set can be described thus: FACS analysis of B cell activation (CD40) in whole blood. It counts as cell-based, human. The conditions noted are these: 24 hours, 2 and 10 uM, three donors. The method, then:
(§1) A flow cytometric analysis was performed on whole blood from three donors after treatment with two compound concentrations for 24 h. The FACS analysis for donor 1 and donor 2 was made on another day than donor 3. The compound concentrations were as follows:
B cell activation: 2 and 10 uM
(§2) The FACS analysis was used to identify whether the test compounds could induce activation of B cells, and two different subsets of dendritic cells, namely the myeloid CD11c+/CD123− DCs and the plasmacytoid CD11c−/CD123+ DCs. The following markers were studied to identify the activation status of the different subsets:
(§3) The FACS staining was performed according to the manufacturer's instructions. Lysis of red blood cells was performed before FACS staining in order to minimize auto-florescence. To include as many B cells and DCs in the study as possible the FACS analyses were performed on 500,000 cells in total for each staining. A P1 gate was set only to include relevant cells on FSC vs. SSC (see FIGS. 12-15). The results of the individual analysis were present as Mean Fluorescence Intensity
The analysis of expression of the activation marker CD40 on B cells was made on double positive HLA-DR (MHC class II) (P4 gate) and CD20 cells (B cell marker) (P8 gate).

Data set [2] deals with HLA-DR+/CD11c+/CD123- mDCs. The data set can be described thus: FACS analysis of myeloid DC activation in whole blood. Type of data set: cell-based, human. The conditions noted are these: 24 hours, 0.1 and 0.5 uM, three donors. On the procedure: as §1, §2, §3
The analysis of myeloid DCs was based on HLA-DR+/CD11c+/CD123-cells, thus all analyzed cells was included in the HLA-DR+ (P3) gate and CD11c+/CD123− (Q4) gate (see gates in FIGS. 13-15).
A general note: Flow cytometry measures light scatter and fluorescence of single cells or particles in a stream.

In data set [3] the test system is receptors associated with pain-related syndromes (e.g. adenosine and sodium channel). As to the kind of experiment: Radioligand binding assay among 73 primary molecular targets. As to conditions: SC12 at fixed concentration of 30 microM.
Data set [4] has as its system AY-27 rat bladder cancer cell-line.
Setting [5] is: day 12, group 1 Imiquimod 0.1%, group 2 SC12 0.38%.

Sequence of CYP2E1 (P05181 whole entry, looked up): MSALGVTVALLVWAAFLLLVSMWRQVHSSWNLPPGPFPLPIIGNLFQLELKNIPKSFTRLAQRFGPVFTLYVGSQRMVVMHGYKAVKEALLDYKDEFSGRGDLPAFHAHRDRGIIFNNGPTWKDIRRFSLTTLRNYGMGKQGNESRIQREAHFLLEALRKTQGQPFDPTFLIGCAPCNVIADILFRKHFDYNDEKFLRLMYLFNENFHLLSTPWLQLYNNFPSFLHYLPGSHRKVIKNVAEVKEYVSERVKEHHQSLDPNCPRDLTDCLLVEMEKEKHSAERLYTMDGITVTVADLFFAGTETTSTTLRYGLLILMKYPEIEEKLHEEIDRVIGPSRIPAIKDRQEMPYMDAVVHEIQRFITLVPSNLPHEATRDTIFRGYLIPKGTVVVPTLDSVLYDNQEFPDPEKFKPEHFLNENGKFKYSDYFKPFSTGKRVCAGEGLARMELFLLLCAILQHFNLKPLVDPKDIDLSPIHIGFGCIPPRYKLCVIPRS
Description for CYP2E1: Inhibition of the P450 isoforms was measured in specific assays using specific substrates that become fluorescent upon CYP metabolism. Compounds, dissolved in ACN (acetonitrile) (CYP2E1, CYP2C8, CYP2B6, CYP3A5) or DMSO (all remaining isoforms), were tested in duplicate (n=2) in concentration-response curves (eight concentrations) in a 96-well plate containing incubation/NADPH regenerating buffer. Specific isoenzymes and substrates were added and incubated at 37° C. Reactions were terminated at different times, depending on the assays, and plates read on a Fluoroskan Ascent at the appropriate emission/excitation wavelengths. Concentration-response curves performed in duplicate for known inhibitors for each isoenzyme were tested in every assay as positive control.

Broadly, the IC50 is the concentration at which inhibition is half-maximal. For the molecule `CCN(CC)C(=S)S` [DDTC, reference compound], the half-maximal inhibitory concentration (IC50) at CYP2E1 stood at 0.85 ± 0.01 µM.

With `CC(C)Cn1cnc2c(N)nc3ccccc3c21` [Imiquimod, reference compound], the EC50 in data set [1] (read-out: EC 50 IL 6) worked out at 2 µM; in [1] (read-out: EC 50 TNF-alpha) it was 2.16 µM; in the data set with PBMCs (24 h, Donor 1, 24 hours, read-out: IL-6 secretion MC50) it was 6.35 µM; with PBMCs (24 h, Donor 1, 24 hours, read-out: TNFa secretion MC50), 3.07 µM; in the data set with PBMCs (24 h, Donor 2, 24 hours, read-out: IL-6 secretion MC50) it was 1.99 µM; in the data set with PBMCs (24 h, Donor 2, 24 hours, read-out: TNFa secretion MC50), 24.9 µM. Besides, the EC50 is 4.64 µM with PBMCs (24 h, Donor 3, 24 hours, read-out: IL-6 secretion MC50); 22.4 µM with PBMCs (24 h, Donor 3, 24 hours, read-out: TNFa secretion MC50); 6.35 µM in the data set on PBMCs (D1, first experiments on three donors, read-out: EC50 values, IL-6 secretion); 1.99 µM in the data set with PBMCs (D2, first experiments on three donors, read-out: EC50 values, IL-6 secretion); 4.64 µM in the data set with PBMCs (D3, first experiments on three donors, read-out: EC50 values, IL-6 secretion); 4.33 µM in the data set on PBMCs (average of three donors, read-out: IL-6 secretion Average EC50). The EC50 with PBMCs (average of three donors, read-out: TNFa secretion Average EC50) came out at 16.8 µM; in the data set with human PBMCs (Donor 1, 4 doses) it was 18 µM; in the data set on human PBMCs (Donor 2, 4 doses) it was 18.4 µM. In addition, the IL-6 secretion induced entry in the data set with whole blood (6 h incubation, up to 10.0 micromolar) was “low and insignificant amounts of IL-6”. In the data set with whole blood (6 hours incubation), the IFN-alpha secretion induced entry is “did not induce IFN-alpha secretion”. Also, in the data set with whole blood (6 hours incubation), the IL-10 production result is “no IL-10 production was seen”. Besides, the IL-12p40 secretion induced entry in the data set with whole blood (6 hours incubation) is “did not induce IL-12p40 secretion”; with whole blood (24 hours incubation), “did not induce IL-12p40”. Besides, the “CD40 expression (MFI) on B cells” value with HLA-DR+/CD20+ B cells was “increased expression in all three donors”. Moreover, in data set [2], the “CCR7 expression on mDCs” value is recorded as “showed high CCR7 expression”. Moreover, in [2], the “CD80 expression on mDCs” value was “weak expression of CD80 in donor 1 and 2”. In addition, the “Binding to receptors associated with pain-related syndromes” value in data set [3] is on record as “shown to bind”. The “Number of rats with a tumor positive bladder” value in data set [4] (day 12) is 9 of 14. Moreover, the “Rats with pT2 Tumor, number (% of 14)” value in [4] (setting [5]) is listed as 9 (64.3%). For the same molecule, in [4] (setting [5]), the “Tumor free rats, number (% of 14)” value is on record as 5 (35.7%). For the same molecule, the “Mean weight of the rat bladders” value in [4] (day 12, intravesical 0.5 ml on day 2 and 5, group 1 Imiquimod 0.1%, group 2 SC12 0.38%) is reported as 0.1201 grams. Besides, the “Mean number of tumors per rat bladder” value in [4] (group 1 Imiquimod 0.1%, group 2 SC12 0.38%) turned out to be 1.71. Also, the Signs of toxicity entry in data set [4] (intravesical instillation day 2 and 5) was “No signs of toxicity”. The molecule further had a Mean invasion depth in [4] (tumor positive bladders, group 1 Imiquimod 0.1%, group 2 SC12 0.38%) of 1.3333 mm.

Source of the values: patent publication US9173935B2, “Phospholipid drug analogs” (Telormedix SA, priority 2010, dated 2015).
